Drawing on US20240383886A1, “Protein Tyrosine Phosphatase Degraders and Methods of Use Thereof” (CALICO LIFE SCIENCES LLC, priority 2019, published 2024), this text covers DC50 for 17 molecules.

Experiment [1] concerns PTPN2. Nature of the experiment: HiBiT-Degradation B16F10.4 PTPN2. The experiment is classed as cell-based. To be noted: B16F10.4 cells, 24.0 hours. A general note: HiBiT is a short tag that completes a luciferase, so light tracks the accessible tagged protein.
For experiment [2], the target named is T1, PTPN2 (Homo sapiens, UniProt P17706).
T1 construct: expressed in transfected cells; host or cells: 293T (293T.109 HiBiT-PTPN2 line; parental 293T WT from ATCC)
T1 sequence (P17706 1-415): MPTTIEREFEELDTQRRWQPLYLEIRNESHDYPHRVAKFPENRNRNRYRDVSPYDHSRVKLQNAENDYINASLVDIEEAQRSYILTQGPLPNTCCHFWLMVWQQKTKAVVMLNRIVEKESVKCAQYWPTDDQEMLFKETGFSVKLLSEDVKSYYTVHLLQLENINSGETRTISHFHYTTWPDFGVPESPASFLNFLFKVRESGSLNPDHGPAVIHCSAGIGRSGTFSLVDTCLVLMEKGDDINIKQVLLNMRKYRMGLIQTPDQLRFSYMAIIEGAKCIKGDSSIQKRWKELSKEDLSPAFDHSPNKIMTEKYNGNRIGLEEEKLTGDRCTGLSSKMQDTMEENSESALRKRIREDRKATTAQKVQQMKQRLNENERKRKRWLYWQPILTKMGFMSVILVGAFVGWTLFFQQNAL
In words: HiBiT-Degradation 293T.109 PTPN2 (Nano-Glo HiBiT Lytic Assay). To be noted: 293T.109 (HiBiT-PTPN2) cells, 24.0 hours. It counts as cell-based. From the text: Dulbecco's modified Eagle medium (DMEM) without phenol red and fetal bovine serum (FBS) were purchased from Gibco (Grand Island, NY, USA). Nano-Glo® HiBIT Lytic Assay System was purchased from Promega (Madison, WI, USA). 293T.109 (HiBiT-PTPN2) cell line was generated by ectopically expressing PTPN2 with N-terminal HiBiT fusion tag in 293T WT cell line purchased from ATCC (Manassas, VA, USA). Cell culture flasks and 384-well microplates were acquired from VWR (Radnor, PA, USA).
PTPN2 degradation was determined based on quantification of luminescent signal using Nano-Glo® HiBIT Lytic Assay kit. Test compounds were added to the 384-well plate from a top concentration of 10 μM with 11 points, half log titration in duplicates. 293T.109 cells were added into 384-well plates at a cell density of 5000 cells per well. The plates were kept at 37° C. with 5% CO2 for 24 hours. The cells treated in the absence of the test compound were the negative control and the cells without Nano-Glo® HiBiT Lytic reagent were the positive control. After 24-hour incubation, Nano-Glo® HiBIT Lytic Assay reagents were added to the cells. Luminescence was acquired on EnVision™ Multilabel Reader (PerkinElmer, Santa Clara, CA, USA).

Regarding `O=C(C=Cc1ccc2cc(O)c(N3CC(=O)NS3(=O)=O)c(F)c2c1)NC1CCN(C(=O)COc2cccc3c2CN(C2CCC(=O)NC2=O)C3=O)CC1` (stereo not shown) [Example 11, 3-(7-(1,1-dioxido-4-oxo-1,2,5-thiadiazolidin-2-yl)-8-fluoro-6-hydroxynaphthalen-2-yl)-N-(1-(2-((2-(2,6-dioxopiperidin-3-yl)-1-oxoisoindolin-4-yl)oxy)acetyl)piperidin-4-yl)acrylamide], the DC50 in the experiment with PTPN2 [1] and on PTPN2 [2] was 0.2 to 1 µM throughout.
Regarding `O=C1CCC(N2C(=O)c3cccc(NCc4cnn(CCC(=O)Nc5ccc6c(F)c(N7CC(=O)NS7(=O)=O)c(O)cc6c5)c4)c3C2=O)C(=O)N1` (stereo not shown) [Example 12, 3-[4-[[[2-(2,6-dioxo-3-piperidyl)-1,3-dioxo-isoindolin-4-yl]amino]methyl]pyrazol-1-yl]-N-[5-fluoro-7-hydroxy-6-(1,1,4-trioxo-1,2,5-thiadiazolidin-2-yl)-2-naphthyl]propanamide], the DC50 with PTPN2 [1] was at least 1 µM; at PTPN2 [2], 0.2 to 1 µM.
As for `O=C1CCC(N2Cc3c(NCc4cnn(CCC(=O)Nc5ccc6c(F)c(N7CC(=O)NS7(=O)=O)c(O)cc6c5)c4)cccc3C2=O)C(=O)N1` (stereo not shown) [Example 13, 3-[4-[[[2-(2,6-dioxo-3-piperidyl)-1-oxo-isoindolin-4-yl]amino]methyl]pyrazol-1-yl]-N-[5-fluoro-7-hydroxy-6-(1,1,4-trioxo-1,2,5-thiadiazolidin-2-yl)-2-naphthyl]propanamide], the DC50 lay within 0.2 to 1 µM with PTPN2 [1] and 0.05 to 0.2 µM on PTPN2 [2].
In the case of `O=C1CCC(N2C(=O)c3ccc(NCc4cn(CCC(=O)Nc5ccc6c(F)c(N7CC(=O)NS7(=O)=O)c(O)cc6c5)nn4)cc3C2=O)C(=O)N1` (stereo not shown) [Example 14, N-(6-(1,1-dioxido-4-oxo-1,2,5-thiadiazolidin-2-yl)-5-fluoro-7-hydroxynaphthalen-2-yl)-3-(4-(((2-(2,6-dioxopiperidin-3-yl)-1,3-dioxoisoindolin-5-yl)amino)methyl)-1H-1,2,3-triazol-1-yl)propanamide], the DC50 in the experiment with PTPN2 [1] and on PTPN2 [2] was 0.2 to 1 µM each time.
Take `O=C1CCC(N2Cc3cc(NCc4cn(CCC(=O)Nc5ccc6c(F)c(N7CC(=O)NS7(=O)=O)c(O)cc6c5)nn4)ccc3C2=O)C(=O)N1` (stereo not shown) [Example 15, 3-[4-[[[2-(2,6-dioxo-3-piperidyl)-1-oxo-isoindolin-5-yl]amino]methyl]triazol-1-yl]-N-[5-fluoro-7-hydroxy-6-(1,1,4-trioxo-1,2,5-thiadiazolidin-2-yl)-2-naphthyl]propanamide]: the DC50 in the experiment with PTPN2 [1] and on PTPN2 [2] was 0.2 to 1 µM each time.
As for `O=C1CCC(N2Cc3cc(NCc4cnn(CCC(=O)Nc5ccc6c(F)c(N7CC(=O)NS7(=O)=O)c(O)cc6c5)c4)ccc3C2=O)C(=O)N1` (stereo not shown) [Example 16, 3-[4-[[[2-(2,6-dioxo-3-piperidyl)-1-oxo-isoindolin-5-yl]amino]methyl]pyrazol-1-yl]-N-[5-fluoro-7-hydroxy-6-(1,1,4-trioxo-1,2,5-thiadiazolidin-2-yl)-2-naphthyl]propanamide], the DC50 with PTPN2 [1] was in the range of 0.2 to 1 µM; at PTPN2 [2] it was 0.05 to 0.2 µM.
For `O=C1CCC(N2C(=O)c3cccc(NCc4cn(C5CN(C(=O)Nc6ccc7c(F)c(N8CC(=O)NS8(=O)=O)c(O)cc7c6)C5)nn4)c3C2=O)C(=O)N1` (stereo not shown) [Example 17, 3-[4-[[[2-(2,6-dioxo-3-piperidyl)-1,3-dioxo-isoindolin-4-yl]amino]methyl]triazol-1-yl]-N-[5-fluoro-7-hydroxy-6-(1,1,4-trioxo-1,2,5-thiadiazolidin-2-yl)-2-naphthyl]azetidine-1-carboxamide], in that order: at least 1 µM and 0.05 to 0.2 µM.
As to `CC(C)(Nc1cccc2c1C(=O)N(C1CCC(=O)NC1=O)C2=O)c1cn(CCC(=O)Nc2ccc3c(F)c(N4CC(=O)NS4(=O)=O)c(O)cc3c2)nn1` (stereo not shown) [Example 18, N-(6-(1,1-dioxido-4-oxo-1,2,5-thiadiazolidin-2-yl)-5-fluoro-7-hydroxynaphthalen-2-yl)-3-(4-(2-((2-(2,6-dioxopiperidin-3-yl)-1,3-dioxoisoindolin-4-yl)amino)propan-2-yl)-1H-1,2,3-triazol-1-yl)propanamide], the DC50 with PTPN2 [1] was at least 1 µM; at PTPN2 [2], 0.2 to 1 µM.
As for `O=C1CCC(N2Cc3c(OCc4cn(CCC(=O)Nc5ccc6c(F)c(N7CC(=O)NS7(=O)=O)c(O)cc6c5)nn4)cccc3C2=O)C(=O)N1` (stereo not shown) [Example 19, N-(6-(1,1-dioxido-4-oxo-1,2,5-thiadiazolidin-2-yl)-5-fluoro-7-hydroxynaphthalen-2-yl)-3-(4-(((2-(2,6-dioxopiperidin-3-yl)-1-oxoisoindolin-4-yl)oxy)methyl)-1H-1,2,3-triazol-1-yl)propanamide], the DC50 fell in the range of 0.2 to 1 µM with PTPN2 [1] and 0.05 to 0.2 µM at PTPN2 [2].
As for `O=C1CCC(N2Cc3cc(OCc4cn(CCC(=O)Nc5ccc6c(F)c(N7CC(=O)NS7(=O)=O)c(O)cc6c5)nn4)ccc3C2=O)C(=O)N1` (stereo not shown) [Example 20, 3-[4-[[2-(2,6-dioxo-3-piperidyl)-1-oxo-isoindolin-5-yl]oxymethyl]triazol-1-yl]-N-[5-fluoro-7-hydroxy-6-(1,1,4-trioxo-1,2,5-thiadiazolidin-2-yl)-2-naphthyl]propanamide], the DC50 in the experiment with PTPN2 [1] and on PTPN2 [2] was 0.05 to 0.2 µM in each case.
For the molecule `O=C1CCC(N2Cc3c(OCc4cnn(CCC(=O)Nc5ccc6c(F)c(N7CC(=O)NS7(=O)=O)c(O)cc6c5)c4)cccc3C2=O)C(=O)N1` (stereo not shown) [Example 21, N-(6-(1,1-dioxido-4-oxo-1,2,5-thiadiazolidin-2-yl)-5-fluoro-7-hydroxynaphthalen-2-yl)-3-(4-(((2-(2,6-dioxopiperidin-3-yl)-1-oxoisoindolin-4-yl)oxy)methyl)-1H-pyrazol-1-yl)propanamide], the figures for the DC50 in the experiment on PTPN2 [1] and on PTPN2 [2] were 0.2 to 1 µM and 0.05 to 0.2 µM, respectively.
For the molecule `Cn1c(=O)n(C2CCC(=O)NC2=O)c2ccc(C3CCN(CC(=O)Nc4ccc5c(F)c(N6CC(=O)NS6(=O)=O)c(O)cc5c4)CC3)cc21` (stereo not shown) [Example 22, N-(6-(1,1-dioxido-4-oxo-1,2,5-thiadiazolidin-2-yl)-5-fluoro-7-hydroxynaphthalen-2-yl)-2-(4-(1-(2,6-dioxopiperidin-3-yl)-3-methyl-2-oxo-2,3-dihydro-1H-benzo[d]imidazol-5-yl)piperidin-1-yl)acetamide], the DC50 in the experiment on PTPN2 [1] was 0.05 to 0.2 µM; at PTPN2 [2], below 0.01 µM.
For `O=C1CCC(n2c(=O)oc3cc(C4CCN(CC(=O)Nc5ccc6c(F)c(N7CC(=O)NS7(=O)=O)c(O)cc6c5)CC4)ccc32)C(=O)N1` (stereo not shown) [Example 23, 2-[4-[3-(2,6-dioxo-3-piperidyl)-2-oxo-1,3-benzoxazol-6-yl]-1-piperidyl]-N-[5-fluoro-7-hydroxy-6-(1,1,4-trioxo-1,2,5-thiadiazolidin-2-yl)-2-naphthyl]acetamide], in that order: 0.05 to 0.2 µM and 0.01 to 0.05 µM.
Regarding `CC(C)n1c(=O)n(C2CCC(=O)NC2=O)c2ccc(C3CCN(CC(=O)Nc4ccc5c(F)c(N6CC(=O)NS6(=O)=O)c(O)cc5c4)CC3)cc21` (stereo not shown) [Example 24, 2-[4-[1-(2,6-dioxo-3-piperidyl)-3-isopropyl-2-oxo-benzimidazol-5-yl]-1-piperidyl]-N-[5-fluoro-7-hydroxy-6-(1,1,4-trioxo-1,2,5-thiadiazolidin-2-yl)-2-naphthyl]acetamide], the DC50 with PTPN2 [1] and on PTPN2 [2] was 0.05 to 0.2 µM throughout.
Regarding `Cn1c(=O)n(C2CCC(=O)NC2=O)c2cccc(C3CCN(CC(=O)Nc4ccc5c(F)c(N6CC(=O)NS6(=O)=O)c(O)cc5c4)CC3)c21` (stereo not shown) [Example 25, 2-[4-[1-(2,6-dioxo-3-piperidyl)-3-methyl-2-oxo-benzimidazol-4-yl]-1-piperidyl]-N-[5-fluoro-7-hydroxy-6-(1,1,4-trioxo-1,2,5-thiadiazolidin-2-yl)-2-naphthyl]acetamide], the DC50 with PTPN2 [1] was at least 1 µM; at PTPN2 [2] it was 0.2 to 1 µM.
On to `O=C1CCC(N2C(=O)c3cccc4c(C5CCN(CC(=O)Nc6ccc7c(F)c(N8CC(=O)NS8(=O)=O)c(O)cc7c6)CC5)ccc2c34)C(=O)N1` (stereo not shown) [Example 26, 2-[4-[1-(2,6-dioxo-3-piperidyl)-2-oxo-benzo[cd]indol-6-yl]-1-piperidyl]-N-[5-fluoro-7-hydroxy-6-(1,1,4-trioxo-1,2,5-thiadiazolidin-2-yl)-2-naphthyl]acetamide], for which the DC50 in the experiment with PTPN2 [1] and at PTPN2 [2] was 0.05 to 0.2 µM throughout.
Consider `Cn1c(=O)n(C2CCC(=O)NC2=O)c2ccc(NC3CN(CC(=O)Nc4ccc5c(F)c(N6CC(=O)NS6(=O)=O)c(O)cc5c4)C3)cc21` (stereo not shown) [Example 27, 2-[3-[[1-(2,6-dioxo-3-piperidyl)-3-methyl-2-oxo-benzimidazol-5-yl]amino]azetidin-1-yl]-N-[5-fluoro-7-hydroxy-6-(1,1,4-trioxo-1,2,5-thiadiazolidin-2-yl)-2-naphthyl]acetamide], for which the DC50 in the experiment with PTPN2 [1] is 0.2 to 1 µM; on PTPN2 [2] it was 0.01 to 0.05 µM.

One may read the DC50 as the concentration giving 50% degradation.
